Experimental data published in US10131652B2, “Pyrimidinyloxy benzene derivatives as herbicides” (E. I. DU PONT DE NEMOURS AND COMPANY, priority 2014, dated 2018).
Read-outs that look alike come from different tables or passages of the source.

Tests used:
Experiment in all cases: Test E pre-/postemergence plant response
Type in all cases: in vivo
[1] = system: bluegrass (annual bluegrass, Poa annua); details: scale 0 to 100, read-out: Plant response rating, Bluegrass; for pest or weed control at 16 g/ha: 16 g ai/ha; for pest or weed control at 31 g/ha: 31 g ai/ha; for pest or weed control at 62 g/ha: 62 g ai/ha; for pest or weed control at 125 g/ha: 125 g ai/ha
Procedure, shortened: (§1)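 Pre-emergence: seeds sown in silt loam soil and sprayed with test chemicals in a non-phytotoxic solvent/surfactant mix. Post-emergence: plants at 2–18 cm (1- to 4-leaf stage) in peat/vermiculite medium treated with the same formulation. Visual rating versus controls after 7–21 days, 0 (no effect) to 100 (complete control).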

[2] = system: canarygrass (Phalaris minor); details: scale 0 to 100, read-out: Plant response rating, Canarygrass; for pest or weed control at 16 g/ha: 16 g ai/ha; for pest or weed control at 31 g/ha: 31 g ai/ha; for pest or weed control at 62 g/ha: 62 g ai/ha; for pest or weed control at 125 g/ha: 125 g ai/ha
Procedure, shortened: as §1

[3] = system: chickweed (common chickweed, Stellaria media); details: scale 0 to 100, read-out: Plant response rating, Chickweed; for pest or weed control at 16 g/ha: 16 g ai/ha; for pest or weed control at 31 g/ha: 31 g ai/ha; for pest or weed control at 62 g/ha: 62 g ai/ha; for pest or weed control at 125 g/ha: 125 g ai/ha
Procedure, shortened: as §1

[4] = system: downy bromegrass (Bromus tectorum); details: scale 0 to 100, read-out: Plant response rating, Bromegrass, Downy; for pest or weed control at 16 g/ha: 16 g ai/ha; for pest or weed control at 31 g/ha: 31 g ai/ha; for pest or weed control at 62 g/ha: 62 g ai/ha; for pest or weed control at 125 g/ha: 125 g ai/ha
Procedure, shortened: as §1

[5] = system: galium (catchweed bedstraw, Galium aparine); details: scale 0 to 100, read-out: Plant response rating, Galium; for pest or weed control at 16 g/ha: 16 g ai/ha; for pest or weed control at 31 g/ha: 31 g ai/ha; for pest or weed control at 62 g/ha: 62 g ai/ha; for pest or weed control at 125 g/ha: 125 g ai/ha
Procedure, shortened: as §1

[6] = system: speedwell (bird's-eye speedwell, Veronica persica); details: scale 0 to 100, read-out: Plant response rating, Speedwell; for pest or weed control at 16 g/ha: 16 g ai/ha; for pest or weed control at 62 g/ha: 62 g ai/ha; for pest or weed control at 125 g/ha: 125 g ai/ha
Procedure, shortened: as §1

[7] = system: spring barley (Hordeum vulgare); details: post-emergence, Postemergence
Procedure, shortened: as §1

[8] = system: wild mustard (Sinapis arvensis); details: Brassica, scale 0 to 100, read-out: Plant response rating, Mustard, Wild; for pest or weed control at 16 g/ha: 16 g ai/ha; for pest or weed control at 31 g/ha: 31 g ai/ha; for pest or weed control at 62 g/ha: 62 g ai/ha; for pest or weed control at 125 g/ha: 125 g ai/ha
Procedure, shortened: as §1

[9] = system: windgrass (Apera spica-venti); details: scale 0 to 100, read-out: Plant response rating, Windgrass; for pest or weed control at 16 g/ha: 16 g ai/ha; for pest or weed control at 62 g/ha: 62 g ai/ha; for pest or weed control at 125 g/ha: 125 g ai/ha
Procedure, shortened: as §1

[10] = system: winter barley (Hordeum vulgare); details: post-emergence, Postemergence, scale 0 to 100, read-out: Plant response rating, Barley, Winter
Procedure, shortened: as §1

[11] = post-emergence, 31 g ai/ha, Postemergence

`FC(F)c1cc(-c2ccccc2Oc2ncc(Cl)cn2)no1` [Compound 35, 5-chloro-2-[2-[5-(difluoromethyl)-3-isoxazolyl]phenoxy]pyrimidine] was tested, and the pest or weed control at 16 g/ha ([1]; post-emergence, Postemergence) was 15%, the pest or weed control at 31 g/ha ([1]; post-emergence, Postemergence) was 20% and the pest or weed control at 62 g/ha ([1]; post-emergence, Postemergence) was 40%. The pest or weed control at 125 g/ha ([1]; post-emergence, Postemergence) was 60%, the pest or weed control at 16 g/ha ([1]; pre-emergence, Preemergence) was 0% and the pest or weed control at 31 g/ha ([1]; pre-emergence, Preemergence) was 35%. The pest or weed control at 62 g/ha ([1]; pre-emergence, Preemergence) was 35%, the pest or weed control at 125 g/ha ([1]; pre-emergence, Preemergence) was 70% and the pest or weed control at 16 g/ha ([2]; post-emergence, Postemergence) was 10%. For the same molecule, the pest or weed control at 31 g/ha ([2]; post-emergence, Postemergence) was 25%, the pest or weed control at 62 g/ha ([2]; post-emergence, Postemergence) was 55% and the pest or weed control at 125 g/ha ([2]; post-emergence, Postemergence) was 60%. It also gave a pest or weed control at 16 g/ha ([2]; pre-emergence, Preemergence) of 40%, a pest or weed control at 31 g/ha ([2]; pre-emergence, Preemergence) of 55% and a pest or weed control at 62 g/ha ([2]; pre-emergence, Preemergence) of 95%. For the same molecule, the pest or weed control at 125 g/ha ([2]; pre-emergence, Preemergence) was 100%, the pest or weed control at 16 g/ha ([3]; post-emergence, Postemergence) was 65% and the pest or weed control at 31 g/ha ([3]; post-emergence, Postemergence) was 75%. For the same molecule, the pest or weed control at 62 g/ha ([3]; post-emergence, Postemergence) was 75%, the pest or weed control at 125 g/ha ([3]; post-emergence, Postemergence) was 100% and the pest or weed control at 16 g/ha ([3]; pre-emergence, Preemergence) was 55%. For the same molecule, the pest or weed control at 31 g/ha ([3]; pre-emergence, Preemergence) was 100%, the pest or weed control at 62 g/ha ([3]; pre-emergence, Preemergence) was 95% and the pest or weed control at 125 g/ha ([3]; pre-emergence, Preemergence) was 100%. It also gave a pest or weed control at 16 g/ha ([4]; post-emergence, Postemergence) of 5%, a pest or weed control at 31 g/ha ([4]; post-emergence, Postemergence) of 5% and a pest or weed control at 62 g/ha ([4]; post-emergence, Postemergence) of 15%. It also gave a pest or weed control at 125 g/ha ([4]; post-emergence, Postemergence) of 30%, a pest or weed control at 16 g/ha ([4]; pre-emergence, Preemergence) of 0% and a pest or weed control at 31 g/ha ([4]; pre-emergence, Preemergence) of 35%. The pest or weed control at 62 g/ha ([4]; pre-emergence, Preemergence) was 35%, the pest or weed control at 125 g/ha ([4]; pre-emergence, Preemergence) was 25% and the pest or weed control at 16 g/ha ([5]; post-emergence, Postemergence) was 70%. For the same molecule, the pest or weed control at 31 g/ha ([5]; post-emergence, Postemergence) was 80%, the pest or weed control at 62 g/ha ([5]; post-emergence, Postemergence) was 75% and the pest or weed control at 125 g/ha ([5]; post-emergence, Postemergence) was 85%. The pest or weed control at 16 g/ha ([5]; pre-emergence, Preemergence) was 25%, the pest or weed control at 31 g/ha ([5]; pre-emergence, Preemergence) was 55% and the pest or weed control at 62 g/ha ([5]; pre-emergence, Preemergence) was 100%. For the same molecule, the pest or weed control at 125 g/ha ([5]; pre-emergence, Preemergence) was 100%, the pest or weed control at 16 g/ha ([6]; post-emergence, Postemergence) was 75% and the pest or weed control at 31 g/ha [6, 11] was 100%. The pest or weed control at 62 g/ha ([6]; post-emergence, Postemergence) was 100%, the pest or weed control at 125 g/ha ([6]; post-emergence, Postemergence) was 100% and the pest or weed control at 16 g/ha ([6]; pre-emergence, Preemergence) was 100%. It also gave a pest or weed control at 62 g/ha ([6]; pre-emergence, Preemergence) of 100%, a pest or weed control at 125 g/ha ([6]; pre-emergence, Preemergence) of 100% and a plant injury at 16 g/ha ([7]; 16 g ai/ha, scale 0 to 100, read-out: Plant response rating, Barley, Spring) of 5%. It also gave a plant injury at 31 g/ha ([7]; 31 g ai/ha, scale 0 to 100, read-out: Plant response rating, Barley, Spring) of 5%, a plant injury at 62 g/ha ([7]; 62 g ai/ha, scale 0 to 100, read-out: Plant response rating, Barley, Spring) of 10% and a plant injury at 125 g/ha ([7]; 125 g ai/ha, scale 0 to 100 (0 no effect, 100 complete control), read-out: Plant response rating, Barley, Spring) of 25%. It also gave a pest or weed control at 16 g/ha ([8]; post-emergence, Postemergence) of 90%, a pest or weed control at 31 g/ha ([8]; post-emergence, Postemergence) of 85% and a pest or weed control at 62 g/ha ([8]; post-emergence, Postemergence) of 85%. It also gave a pest or weed control at 125 g/ha ([8]; post-emergence, Postemergence) of 100%, a pest or weed control at 16 g/ha ([8]; pre-emergence, Preemergence) of 20% and a pest or weed control at 31 g/ha ([8]; pre-emergence, Preemergence) of 60%. For the same molecule, the pest or weed control at 62 g/ha ([8]; pre-emergence, Preemergence) was 95%, the pest or weed control at 125 g/ha ([8]; pre-emergence, Preemergence) was 95% and the pest or weed control at 16 g/ha ([9]; post-emergence, Postemergence) was 10%. For the same molecule, the pest or weed control at 31 g/ha [9, 11] was 25%, the pest or weed control at 62 g/ha ([9]; post-emergence, Postemergence) was 30% and the pest or weed control at 125 g/ha ([9]; post-emergence, Postemergence) was 40%. It also gave a pest or weed control at 16 g/ha ([9]; pre-emergence, Preemergence) of 35%, a pest or weed control at 62 g/ha ([9]; pre-emergence, Preemergence) of 85% and a pest or weed control at 125 g/ha ([9]; pre-emergence, Preemergence) of 100%. The plant injury at 16 g/ha ([10]; 16 g ai/ha) was 0%, the plant injury at 31 g/ha ([10]; 31 g ai/ha) was 0% and the plant injury at 62 g/ha ([10]; 62 g ai/ha) was 5%. The plant injury at 125 g/ha ([10]; 125 g ai/ha) was 30%.
